Test results: US20020194634A1, “Insect control system” (priority 1999, published 2002)

Experiments:
[1] = system: non-transformed adult flies; assay: 5-FC feeding of non-transformed adult flies; assay type: in vivo, Drosophila melanogaster; details: 5-FC in food
Method: (§1) To evaluate the effects of 5-FU on a D. melanogaster yw strain, flies were raised first on medium containing 5-FU. Groups of 25 flies were cultured on food containing various concentrations of the drug. Four vials of each concentration of the drug were used for each experiment and three experiments were performed. The surviving flies per vial were counted over a period of time. […] No eggs were laid on food containing more than 20 mM of 5-FU.
The effects of the pro-drug 5-FC on non-transformed adult flies were determined in a similar way.

CD transformed flies = assay: 5-FC feeding of CD transformed flies; assay type: in vivo, Drosophila melanogaster; details: female CD flies compared with male CD flies, 5-FC in food
Method: The effect of the pro-drug 5-FC on CD transformed flies was determined by raising the flies on food containing various concentrations of 5-FC.

[2] = system: transgenic Medfly (C. capitata) carrying the cytosine deaminase transgene; assay: 5-FC susceptibility of transgenic Medfly expressing cytosine deaminase; assay type: in vivo, Ceratitis capitata
Method: Using standard methods, a genetic construct is prepared bearing the C. capitata VG1 promoter operably linked to a cDNA encoding E. coli cytosine deaminase. The cytosine deaminase gene, when introduced into insect cells, confers sensitivity to the pro-drug 5-FC.
The construct is inserted into the Minos transposon using conventional techniques and, in addition, those described in U.S. Pat. No. 5,840,865. The modified transposon is then used to transform Medfly according to standard transgenesis procedures.
Transgenic flies carrying the modified transposon are bred to create transgenic strains that express the cytosine deaminase enzyme. […] Moreover, cytosine deaminase expression is correlated with susceptibility to the pro-drug 5-FC administered in food to the flies.
A highly susceptible strain is bred and male flies isolated. Introduction of male flies into a population of non-transgenic flies results in rapid transfer of the transgene. Female flies which are born inheriting the transgene are susceptible to 5-FC, whilst male files remain resistant.

[3] = system: human colorectal carcinoma cells transfected with a construct expressing bacterial CD; details: CD-transfected vs untransfected colorectal carcinoma cells; cited from earlier work
[4] = system: D. melanogaster (strain yw); assay: 5-FU feeding toxicity in D. melanogaster yw strain; assay type: in vivo, Drosophila melanogaster; details: 5-FU in food
Method: FIG. 5. Sensitivity of D. melanogaster (strain yw) to 5-FU. The yw strain is used routinely as recipient for generation of transgenic lines. Flies were reared in stadard Drosophila food supplemented with 5-FU at the indicated concentrations of 0 mM, 5 mM, 10 mM, 20 mM, 30 mM, 50 mM 5-FU. The x-axis represents time in days and the y-axis represents the number of flies. The data points represent the number of surviving flies.
FIG. 6. Dose-dependent lethality of D. melanogaster to 5-FU. The x-axis represents 5-FU concentration in mM and the y-axis represents the number of flies. Strain yw flies that were used in the above described transformation experiment were reared in standard Drosophila food supplemented with 5-FU at the indicated concentrations and viable flies were determined after 9 days. Each data point represents the mean±standard deviation of three separate experiments, each with 100 flies.
as §1

[5] = system: tobacco budworm Heliothis virescens; details: cited from earlier work
[6] = system: acetylcholinesterase (AchE); details: cited from earlier work
[7] = budworm larvae, within 2 hours of a topical acephate application; cited from earlier work
[8] = system: nicotinergic acetylcholine receptor (nAcR); details: methyl group at the 3 position of the imidazole ring; cited from earlier work
housefly = details: cited from earlier work
[9] = system: adult boll weevil Anthonomus granids Boheman; details: cited from earlier work

Nc1nc(=O)[nH]cc1F [5-FC, 5-fluorocytosine]
reduction in fly viability [1]: substantially no reduction
viability with increasing 5-FC (CD transformed flies): substantial reduction in viability
susceptibility to 5-FC ([2]; female Medflies inheriting the transgene): susceptible
susceptibility to 5-FC ([2]; male Medflies carrying the transgene): resistant
fold more sensitive to 5-FC than untransfected cells [3]: about 600 fold

O=c1[nH]cc(F)c(=O)[nH]1 [5-FU, 5-fluorouracil]
concentration in food above which no eggs were laid [4]: more than 20 mM
concentration range causing efficient killing of flies ([4]; within 9 days): 30 to 50 mM

COP(=O)(NC(C)=O)SC (stereo not drawn) [Acephate, O, S-dimethyl acetylphosphoramidothicate]
activity of acephate versus methamidophos [5]: comparable activity
AchE inhibition (in words) [6]: not an AchE inhibitor
methamidophos formed from acephate [7]: small amount

CN1CCN(Cc2ccc(Cl)nc2)C1=N[N+](=O)[O-] [N-Me-imidacloprid]
decrease in binding affinity to nAcR relative to imidacloprid [8]: 100 fold
potency relative to imidacloprid (housefly): as potent as imidacloprid

COP(N)(=O)SC (stereo not drawn) [methamidophos, O, S-dimethyl phosphoramidothicate]
fold more toxic than acephate [9]: 75 fold
activity of acephate versus methamidophos [5]: comparable activity
AchE inhibition (in words) [6]: potent
